For data set [1], the target named is T1, human A2B adenosine receptors (Homo sapiens, UniProt P29275).
T1 construct: expressed in transfected cells; host or cells: CHO cells (whole cells)
T1 sequence (P29275 1-332): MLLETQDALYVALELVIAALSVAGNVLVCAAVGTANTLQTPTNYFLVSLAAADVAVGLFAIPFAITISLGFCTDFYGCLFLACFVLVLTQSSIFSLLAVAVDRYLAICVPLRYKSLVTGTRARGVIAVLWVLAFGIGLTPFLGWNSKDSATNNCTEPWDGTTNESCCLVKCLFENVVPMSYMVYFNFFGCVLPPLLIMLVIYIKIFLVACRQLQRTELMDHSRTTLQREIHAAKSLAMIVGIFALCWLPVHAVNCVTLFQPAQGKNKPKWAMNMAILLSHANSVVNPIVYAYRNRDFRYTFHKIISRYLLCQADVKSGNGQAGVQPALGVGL
Briefly: cAMP assay in CHO cells expressing human A2B adenosine receptors (antagonism of NECA-induced cAMP). The class given is cell-based. As to conditions: antagonism of NECA (100 nM)-induced cAMP, geometric mean (95% confidence limits), read-out: IC50 hA2B (cAMP assay). How it is done: Measurement of Cyclic AMP Levels in CHO Cells Transfected with Human A2B Adenosine Receptors
CHO cells transfected with human A2B adenosine receptors are washed with phosphate-buffered saline, diluted trypsine and centrifuged for 10 min at 200 g. The pellet containing the CHO cells (1×10^6 cells/assay) is suspended in 0.5 mL of incubation mixture: NaCl 150 mM, KCl 2.7 mM, NaH2PO4 0.37 mM, MgSO4 1 mM, CaCl2 1 mM, Hepes 5 mM, MgCl2 10 mM, glucose 5 mM, pH 7.4 at 37° C. Then 2.0 IU/mL adenosine deaminase and 0.5 mM 4-(3-butoxy-4-methoxybenzyl)-2-imidazolidinone (Ro 20-1724) as phosphodiesterase inhibitor are added and preincubated for 10 min a shaking bath at 37° C. The potency of antagonists studied are determined by antagonism of NECA (100 nM)-induced stimulation of cyclic AMP levels. The reaction is terminated by the addition of cold 6% thrichloroacetic acid (TCA). The TCA suspension is centrifuged at 2000 g for 10 min at 4° C. and the supernatant is extracted four times with water saturated diethyl ether. The final aqueous solution is tested for cyclic AMP levels by a competition protein binding assay. Samples of cyclic AMP standard ([…]) are added to each test tube containing the incubation buffer (trizma base 0.1 M, aminophylline 8.0 mM, 2-mercaptoethanol 6.0 mM (pH 7.4) and [^3H]cyclic AMP in a total volume of 0.5 mL. The binding protein previously prepared from beef adrenals, is added to the samples previously incubated at 4° C. for 150 min, and after the addition of charcoal are centrifuged at 2000 g for 10 min. The clear supernatant is counted with 4 mL of Atomlight liquid scintillator and counted in a Tri Carb Packard 2500 TR scintillation counter.
(§1) The protein concentration is determined according to a Bio-Rad method (Bradford, Anal Biochem. 1976, 72: 248-254) with bovine albumin as a standard reference. Inhibitory binding constant, Ki, values are calculated from those of IC50 according to Cheng & Prusoff equation (Biochem. Pharmacol 1973, 22: 3099-3108): Ki=IC50/(1+[C*]/KD*) where [C*] is the concentration of the radioligand and KD* its dissociation constant. A weighted non linear least-squares curve fitting program LIGAND (Munson et al., Anal. Biochem 1980, 107: 220-239) is used for computer analysis of inhibition experiments Data are expressed as geometric mean with 95% confidence limits in parentheses. Examples of Animal Models
(In general: Changes in cAMP serve as a functional read-out for many G protein-coupled receptors.)

The target of data set [2] is T1, human A2B adenosine receptors. Briefly: Displacement of [3H]MRE2029F20 binding at human A2B adenosine receptors. Particulars: [3H]MRE2029F20 displacement, human A2B receptors (footnote: HEK293 cells; method: CHO cells), n = 3-6; geometric mean (95% confidence limits); read-out: Ki hA2B. How it is done: […] (Naunyn-Schmied. Arch Pharm. 1998, 357: 1-9). Briefly, the cells are grown adherently and maintained in Dulbecco's Modified Eagles Medium with nutrient mixture F12 (DMEM/F12) without nucleosides, containing 10% fetal calf serum, penicillin (100 U/mL), streptomycin (100 μg/mL), L-glutamine (2 mM) and Geneticin (G418, 0.2 mg/ml) at 37° C. in 5% CO2/95% air. For membrane preparation the culture medium is removed and the cells are washed with phosphate-buffered saline and scraped off T75 flasks in ice-cold hypo tonic buffer (5 mM Tris HCl, 1 mM EDTA, pH 7.4). The cell suspension is homogenized with Polytron, the homogenate is spun for 10 min at 1000×g and the supernatant is then centrifuged for 30 min at 100,000×g. The membrane pellet is suspended in 50 mM Tris HCl buffer (pH 7.4) for A1 adenosine receptors, in 50 mM Tris HCl, 10 mM MgCl2 (pH 7.4) for A2A adenosine receptors, in 50 mM Tris HCl, 10 mM MgCl2, 1 mM EDTA (pH 7.4) for A2B and A3 adenosine receptors.
All new synthesized compounds have been tested to evaluate their affinity to human A1, A2A, A2B and A3 adenosine receptors. […] Pharmacol., 2000, 57: 968-975). Non-specific binding is determined in the presence of 10 μM of CHA and this is always ≦10% of the total binding. […] recombinant A2A adenosine receptors is performed using a suspension of membranes (50 μg of protein/assay) and at least 6-8 different concentrations of studied antagonists for an incubation time of 60 min at 4° C. Non-specific binding is determined in the presence of 1 μM ZM 241385 and is about 20% of total binding. […] Non-specific binding is defined as binding in the presence of 1 μM MRE 3029F20 and is about 25% of total binding. […] Non-specific binding is defined as binding in the presence of 1 μM MRE 3008F20 and is about 25% of total binding. Bound and free radioactivity are separated by filtering the assay mixture through Whatman GF/B glass fiber filters using a Micro-Mate 196 cell harvester (Packard Instrument Co.). The filter bound radioactivity is counted on a Top Count (efficiency 57%) with Micro-Scint 20.
as §1
For orientation: Loss of bound radioactivity is the signal in a displacement assay; it reports binding, not function.

Data set [3] has as its target T2, human A1 adenosine receptors (Homo sapiens, UniProt P30542).
T2 construct: expressed in transfected cells; host or cells: CHO cells (membranes)
T2 sequence (P30542 1-326): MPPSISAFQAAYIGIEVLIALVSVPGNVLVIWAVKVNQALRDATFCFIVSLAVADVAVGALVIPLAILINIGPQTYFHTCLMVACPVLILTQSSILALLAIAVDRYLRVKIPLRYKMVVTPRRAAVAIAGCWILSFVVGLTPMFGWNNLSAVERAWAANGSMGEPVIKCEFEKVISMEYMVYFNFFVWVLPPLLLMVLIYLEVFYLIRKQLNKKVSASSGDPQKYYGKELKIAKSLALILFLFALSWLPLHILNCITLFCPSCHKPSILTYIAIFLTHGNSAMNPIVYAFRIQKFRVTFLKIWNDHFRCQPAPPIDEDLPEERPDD
Description: Displacement of [3H]DPCPX binding at human A1 adenosine receptors expressed in CHO cells. As to conditions: [3H]DPCPX displacement, n = 3-6, geometric mean (95% confidence limits), read-out: Ki hA1. The procedure:
(§2) The human adenosine receptors have been transfected in CHO cells according with the method previously described by Klotz et al. (Naunyn-Schmied. Arch Pharm. 1998, 357: 1-9). Briefly, the cells are grown adherently and maintained in Dulbecco's Modified Eagles Medium with nutrient mixture F12 (DMEM/F12) without nucleosides, containing 10% fetal calf serum, penicillin (100 U/mL), streptomycin (100 μg/mL), L-glutamine (2 mM) and Geneticin (G418, 0.2 mg/ml) at 37° C. in 5% CO2/95% air. For membrane preparation the culture medium is removed and the cells are washed with phosphate-buffered saline and scraped off T75 flasks in ice-cold hypo tonic buffer (5 mM Tris HCl, 1 mM EDTA, pH 7.4). The cell suspension is homogenized with Polytron, the homogenate is spun for 10 min at 1000×g and the supernatant is then centrifuged for 30 min at 100,000×g. The membrane pellet is suspended in 50 mM Tris HCl buffer (pH 7.4) for A1 adenosine receptors, in 50 mM Tris HCl, 10 mM MgCl2 (pH 7.4) for A2A adenosine receptors, in 50 mM Tris HCl, 10 mM MgCl2, 1 mM EDTA (pH 7.4) for A2B and A3 adenosine receptors.
(§3) All new synthesized compounds have been tested to evaluate their affinity to human A1, A2A, A2B and A3 adenosine receptors. Displacement experiments of [^3H]-DPCPX to CHO cells transfected with the human recombinant A1 adenosine receptors are performed for 120 min at 25° C. incubating diluted membranes (50 μg of protein/assay) and at least 6-8 different concentrations of examined antagonists (Varani et al., Mol. Pharmacol., 2000, 57: 968-975). Non-specific binding is determined in the presence of 10 μM of CHA and this is always ≦10% of the total binding. Binding of [^3H]-ZM 241385 to CHO cells transfected with the human recombinant A2A adenosine receptors is performed using a suspension of membranes (50 μg of protein/assay) and at least 6-8 different concentrations of studied antagonists for an incubation time of 60 min at 4° C. Non-specific binding is determined in the presence of 1 μM ZM 241385 and is about 20% of total binding. Competition binding experiments of [^3H]-MRE 2029F20 to CHO cells transfected with the human recombinant A2B adenosine receptors are carried out incubating for 120 min at 4° C. diluted membranes (50 μg of protein/assay) and at least 6-8 different concentrations of examined compounds. Non-specific binding is defined as binding in the presence of 1 μM MRE 3029F20 and is about 25% of total binding. Competition binding experiments of [^3H]-MRE 3008F20 to CHO cells transfected with the human recombinant A3 adenosine receptors^5 are carried out incubating for 120 min at 4° C. diluted membranes (50 μg of protein/assay) and at least 6-8 different concentrations of examined ligands. Non-specific binding is defined as binding in the presence of 1 μM MRE 3008F20 and is about 25% of total binding. Bound and free radioactivity are separated by filtering the assay mixture through Whatman GF/B glass fiber filters using a Micro-Mate 196 cell harvester (Packard Instrument Co.). The filter bound radioactivity is counted on a Top Count (efficiency 57%) with Micro-Scint 20.
as §1

The target of data set [4] is T3, human A2A adenosine receptors (Homo sapiens, UniProt P29274).
T3 construct: expressed in transfected cells; host or cells: CHO cells (membranes)
Briefly: Displacement of [3H]ZM241385 binding at human A2A adenosine receptors expressed in CHO cells. Particulars: [3H]ZM241385 displacement, n = 3-6, geometric mean (95% confidence limits), read-out: Ki hA2A. How it is done: as §2, §3, §1

T3 sequence (P29274 whole entry): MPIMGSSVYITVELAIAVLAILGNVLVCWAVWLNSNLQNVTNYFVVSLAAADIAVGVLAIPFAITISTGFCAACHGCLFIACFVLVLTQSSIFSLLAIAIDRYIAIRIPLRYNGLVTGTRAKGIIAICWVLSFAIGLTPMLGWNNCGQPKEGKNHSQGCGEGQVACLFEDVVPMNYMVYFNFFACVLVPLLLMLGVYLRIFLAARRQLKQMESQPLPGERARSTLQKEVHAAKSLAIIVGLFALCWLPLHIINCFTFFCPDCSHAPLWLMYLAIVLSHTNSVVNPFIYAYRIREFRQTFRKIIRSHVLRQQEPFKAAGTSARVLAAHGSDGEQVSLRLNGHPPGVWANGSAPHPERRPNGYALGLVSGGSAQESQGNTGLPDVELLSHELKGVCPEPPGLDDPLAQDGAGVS

Molecule `CCCn1c(=O)c2[nH]c(-c3cc(C)n(CC(=O)Nc4ccc(Br)cc4)n3)nc2n(CCC)c1=O` [Example 3, 2-[3-(2,6-Dioxo-1,3-dipropyl-2,3,6,7-tetrahydro-1H-purin-8-yl)-5-methyl-pyrazol-1-yl]-N-(4-bromophenyl)acetamide] yielded a melting point of 270 to 273 °C. For the same molecule, the IC50 in data set [1] worked out at 156 nM. Moreover, the Ki in data set [2] is 35 nM.
For the molecule `CCCn1c(=O)c2[nH]c(-c3cc(C)n(CC(=O)Nc4ccc(Cl)cc4)n3)nc2n(CCC)c1=O` [Example 4, 2-[3-(2,6-Dioxo-1,3-dipropyl-2,3,6,7-tetrahydro-1H-purin-8-yl)-5-methyl-pyrazol-1-yl]-N-(4-chlorophenyl)-acetamide], the melting point lay in the range of 261 to 265 °C. The IC50 in data set [1] was 43 nM. The Ki in data set [2] was 7 nM.
The molecule `CCCn1c(=O)c2[nH]c(-c3cc(CC)n(CC(=O)Nc4ccc(Cl)cc4)n3)nc2n(CCC)c1=O` [Example 9] gave a melting point of 256 to 257 °C. In data set [1], the IC50 is greater than 1000 nM. In data set [3], the Ki was greater than 1000 nM. Further, in data set [4], the Ki was greater than 1000 nM.
Regarding `CCCn1c(=O)c2[nH]c(-c3cc(C)n(CC(=O)Nc4ccc(N(C)C)cc4)n3)nc2n(CCC)c1=O` [Example 11, 2-[3-(2,6-Dioxo-1,3-dipropyl-2,3,6,7-tetrahydro-1H-purin-8-yl)-5-methyl-pyrazol-1-yl]-N-(4-dimethylaminophenyl)-acetamide], the melting point was greater than 300 °C. Also, the IC50 in data set [1] was greater than 1000 nM. In addition, the Ki in data set [3] was greater than 1000 nM. Also, the Ki in data set [4] was greater than 1000 nM.
`CCCn1c(=O)c2[nH]c(-c3cc(C)n(CC(=O)Nc4cccc5ccccc45)n3)nc2n(CCC)c1=O` [Example 13, 2-[3-(2,6-Dioxo-1,3-dipropyl-2,3,6,7-tetrahydro-1H-purin-8-yl)-5-methyl-pyrazol-1-yl]-N-(naphthalen-1-yl)-acetamide] displayed a melting point greater than 300 °C. Besides, the IC50 in data set [1] was greater than 1000 nM. The Ki in data set [3] is greater than 1000 nM. Besides, in data set [4], the Ki is greater than 1000 nM.
`CCCn1c(=O)c2[nH]c(-c3nn(CC(=O)Nc4ccc(Cl)cc4)c(C)c3I)nc2n(CCC)c1=O` [Example 20, 2-[4-Iodo-3-(2,6-dioxo-1,3-dipropyl-2,3,6,7-tetrahydro-1H-purin-8-yl)-5-methyl-pyrazol-1-yl]-N-(4-chlorophenyl)-acetamide] yielded a melting point of 296 to 297 °C. In addition, in data set [1], the IC50 was greater than 1000 nM. Further, the Ki in data set [3] was greater than 1000 nM. The Ki in data set [4] is greater than 1000 nM.

As usually defined, the melting point is the temperature, or range, at which the solid turns liquid. For orientation: IC50 means the concentration that inhibits the measured activity by half. As usually defined, the Ki is a measure of affinity in units of concentration, obtained from inhibition or displacement.

These data come from patent US7767685B2, “Adenosine A2B receptor antagonists” (King Pharmaceuticals Research and Development, Inc., priority 2006, dated 2010).
